Among the test systems are PC-3 prostate; K-562 leukemia; SF-268 CNS; RPMI-8226 leukemia; SF-295 CNS; UACC-257 melanoma; HOP-62 NSCLC; UACC-62 melanoma; HCT-15 colon; A498 renal.
What all share (assay): NCI tumour cell line growth inhibition, 48 h

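Interpolation was linear, between the two tested concentrations surrounding the appropriate level; five concentrations were tested over 48 hours in 96-well plates. GI50 is the concentration that inhibits growth by half. Definition used: TGI = concentration required for complete inhibition of growth.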 Bounds are passed on as bounds.

Consider `COC(=O)C1(N2CCOCC2)CCC([C@@H](c2ccccc2)C(C)[N+](=O)[O-])C1` (stereo not given in full), for which the TGI in the test with PC-3 prostate was > 100 µM; with K-562 leukemia, > 100 µM; in the test on SF-268 CNS it was > 100 µM; in the test with RPMI-8226 leukemia it was 42.9 µM; in the test on SF-295 CNS, > 100 µM; in the test with UACC-257 melanoma it was 86.9 µM. Further, the TGI in the test with HOP-62 NSCLC, in the test with UACC-62 melanoma, with HCT-15 colon and in the test with A498 renal was > 100 µM in each case.
For `S=C1NC(c2ccccc2)NC(c2ccccc2)S1` (stereo not given), the TGI with PC-3 prostate, in the test with K-562 leukemia, with SF-268 CNS, with RPMI-8226 leukemia, in the test on SF-295 CNS and with UACC-257 melanoma was > 100 µM each time. The TGI with HOP-62 NSCLC, in the test with UACC-62 melanoma, in the test on HCT-15 colon and in the test with A498 renal was > 100 µM in each case.
For the molecule `CS(=O)(=O)Nc1cc(-c2ccc3ncnc(Nc4ccc(OCc5ccccn5)c(Cl)c4)c3c2)cnc1Cl`, the GI50 in the test with PC-3 prostate is 0.349 µM; in the test with K-562 leukemia it was 1.29 µM; with SF-268 CNS, 0.429 µM; in the test with RPMI-8226 leukemia it was 0.286 µM; with SF-295 CNS, 0.526 µM; in the test with UACC-257 melanoma, 0.378 µM. Further, the GI50 is 0.646 µM in the test on HOP-62 NSCLC, 0.264 µM with UACC-62 melanoma, 1.13 µM in the test on HCT-15 colon and 0.155 µM with A498 renal. Besides, the TGI is > 100 µM in the test on PC-3 prostate; > 100 µM in the test with K-562 leukemia; > 100 µM in the test on SF-268 CNS; 1.03 µM in the test with RPMI-8226 leukemia; 4.75 µM in the test with SF-295 CNS; 7.1 µM in the test on UACC-257 melanoma. In addition, the TGI in the test on HOP-62 NSCLC is > 100 µM; with UACC-62 melanoma it was 1.58 µM; in the test with HCT-15 colon, > 42 µM; in the test with A498 renal, 0.641 µM.
For `COc1ccc(COc2ccc(Cc3cnc(N)nc3N)cc2OC)cc1`, the GI50 in the test on PC-3 prostate was > 22.4 µM; in the test on K-562 leukemia, 8.19 µM; with SF-268 CNS, > 25 µM; with RPMI-8226 leukemia, > 19.9 µM; in the test on SF-295 CNS, 10.4 µM; in the test with UACC-257 melanoma, 8.48 µM. For the same molecule, the GI50 with HOP-62 NSCLC was > 18.4 µM; in the test on UACC-62 melanoma it was 12 µM; in the test with HCT-15 colon it was > 23.7 µM; in the test on A498 renal, 2.27 µM. Further, the TGI with PC-3 prostate, in the test on K-562 leukemia, in the test on SF-268 CNS, in the test on RPMI-8226 leukemia, in the test on SF-295 CNS and in the test on UACC-257 melanoma was > 25 µM throughout. Further, the TGI in the test on HOP-62 NSCLC, in the test on UACC-62 melanoma, in the test on HCT-15 colon and with A498 renal was > 25 µM throughout.
As for `COc1cc2cc(C(=O)Nc3ccccc3)c(N)nc2cc1OC`, the GI50 with PC-3 prostate was 31.2 µM; with K-562 leukemia it was 41.7 µM; with SF-268 CNS, 81.8 µM; in the test with RPMI-8226 leukemia it was 28.3 µM; in the test with SF-295 CNS it was 46.7 µM; in the test on UACC-257 melanoma, 39.4 µM. The GI50 in the test with HOP-62 NSCLC was 62.6 µM; in the test with UACC-62 melanoma, 28.6 µM; in the test on HCT-15 colon it was 31.3 µM; with A498 renal it was 4.7 µM. Besides, the TGI with PC-3 prostate, with K-562 leukemia, in the test on SF-268 CNS, with RPMI-8226 leukemia, in the test with SF-295 CNS and with UACC-257 melanoma was > 100 µM in each case. Besides, the TGI in the test with HOP-62 NSCLC was > 100 µM; in the test on UACC-62 melanoma, > 100 µM; in the test with HCT-15 colon, > 100 µM; with A498 renal it was 30.9 µM.
As for `OCC1OC(n2cnc3cc(Cl)c(Cl)cc32)C(O)C1O` (stereo not given), the GI50 in the test with PC-3 prostate was 44.5 µM; in the test on K-562 leukemia it was 44.8 µM; in the test on SF-268 CNS, 30.7 µM; in the test on RPMI-8226 leukemia it was 30 µM; with SF-295 CNS, 24.6 µM; with UACC-257 melanoma it was 18.7 µM. The GI50 in the test on HOP-62 NSCLC was 9.13 µM; in the test on UACC-62 melanoma it was 12.2 µM; in the test on HCT-15 colon it was 14.8 µM; in the test with A498 renal, > 47.3 µM. For the same molecule, the TGI is > 100 µM in the test on PC-3 prostate; > 100 µM in the test on K-562 leukemia; > 87.9 µM in the test on SF-268 CNS; > 72.5 µM in the test on RPMI-8226 leukemia; 85.2 µM with SF-295 CNS; 40.7 µM in the test on UACC-257 melanoma. In addition, the TGI in the test on HOP-62 NSCLC was 35.4 µM; in the test with UACC-62 melanoma, 26.6 µM; in the test with HCT-15 colon, 37.5 µM; with A498 renal, > 67.7 µM.
As for `C=C1CC2(CC(c3ccccc3C)OC(c3ccccc3C)C2)OC1=O` (stereo not given), the TGI in the test with PC-3 prostate came out at 5.78 µM; with K-562 leukemia, 5.09 µM; in the test with SF-268 CNS, 3.6 µM; with RPMI-8226 leukemia, 4.12 µM; in the test on SF-295 CNS, 29.4 µM; in the test on UACC-257 melanoma, 3.66 µM. Besides, the TGI came to 26.8 µM with HOP-62 NSCLC, 3.23 µM in the test on UACC-62 melanoma, 3.86 µM with HCT-15 colon and 21.6 µM in the test with A498 renal.
`CN1c2cccc[c]2[Sn]([CH3])([CH3])[c]2ccccc21`: the GI50 was 0.0191 µM in the test on PC-3 prostate; < 0.01 µM with K-562 leukemia; < 0.0178 µM in the test with SF-268 CNS; < 0.0119 µM in the test on RPMI-8226 leukemia; < 0.0165 µM in the test with SF-295 CNS; < 0.01 µM with UACC-257 melanoma. Also, the GI50 in the test on HOP-62 NSCLC is < 0.0137 µM; in the test with UACC-62 melanoma it was < 0.0147 µM; with HCT-15 colon it was < 0.0125 µM; in the test with A498 renal, 0.101 µM. In addition, the TGI was 0.154 µM in the test with PC-3 prostate; 2.13 µM with K-562 leukemia; 0.165 µM in the test on SF-268 CNS; 0.0316 µM in the test on RPMI-8226 leukemia; < 0.034 µM in the test on SF-295 CNS; < 0.0217 µM in the test on UACC-257 melanoma. The TGI in the test with HOP-62 NSCLC came out at 0.0714 µM; in the test on UACC-62 melanoma it was 0.113 µM; with HCT-15 colon, 0.116 µM; in the test with A498 renal it was 0.255 µM.
For the molecule `O=C1NC(=O)/C(=C/c2ccc3nccc(-c4ccncc4)c3c2)S1`, the GI50 with PC-3 prostate was 0.282 µM; with K-562 leukemia, 1.89 µM; in the test with SF-268 CNS, 0.346 µM; with RPMI-8226 leukemia, 1.19 µM; with SF-295 CNS it was 0.356 µM; with UACC-257 melanoma, 0.528 µM. For the same molecule, the GI50 was 0.359 µM in the test on HOP-62 NSCLC, 0.187 µM in the test with UACC-62 melanoma, 0.292 µM in the test with HCT-15 colon and 0.0335 µM with A498 renal. Moreover, the TGI in the test with PC-3 prostate was 2.9 µM; with K-562 leukemia it was > 10 µM; with SF-268 CNS, 5.15 µM; with RPMI-8226 leukemia it was 6.75 µM; in the test with SF-295 CNS, 2.13 µM; in the test on UACC-257 melanoma it was 5.22 µM. The TGI in the test on HOP-62 NSCLC is 4.26 µM; in the test with UACC-62 melanoma it was 1.3 µM; in the test with HCT-15 colon it was > 5.08 µM; with A498 renal it was 0.208 µM.

(Values after PubChem BioAssay (NCI).)
